Target: MDM2 (Homo sapiens, UniProt Q00987)
Test: MDM2 binding screen of Libraries 3 and 4: displacement of fluorescent probe F-M8 at 750 nM macrocycle
Conditions: Panel b, Library 3: 63 scaffolds combinatorially acylated with 15 carboxylic acids at 30 picomole scale; displacement of fluorescent peptide probe; macrocycle 750 nM
Outline: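 Cyclic peptide scaffolds were acylated in DMSO with carboxylic acids (20 equiv.), HBTU and DABCO for 6 h at room temperature. Reactions were quenched overnight in 100 mM Tris-Cl pH 7.4, 0.01% Tween20. The fluorescein conjugate was also competed with nutlin-3a.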

MDM2, sequence (Q00987 whole entry): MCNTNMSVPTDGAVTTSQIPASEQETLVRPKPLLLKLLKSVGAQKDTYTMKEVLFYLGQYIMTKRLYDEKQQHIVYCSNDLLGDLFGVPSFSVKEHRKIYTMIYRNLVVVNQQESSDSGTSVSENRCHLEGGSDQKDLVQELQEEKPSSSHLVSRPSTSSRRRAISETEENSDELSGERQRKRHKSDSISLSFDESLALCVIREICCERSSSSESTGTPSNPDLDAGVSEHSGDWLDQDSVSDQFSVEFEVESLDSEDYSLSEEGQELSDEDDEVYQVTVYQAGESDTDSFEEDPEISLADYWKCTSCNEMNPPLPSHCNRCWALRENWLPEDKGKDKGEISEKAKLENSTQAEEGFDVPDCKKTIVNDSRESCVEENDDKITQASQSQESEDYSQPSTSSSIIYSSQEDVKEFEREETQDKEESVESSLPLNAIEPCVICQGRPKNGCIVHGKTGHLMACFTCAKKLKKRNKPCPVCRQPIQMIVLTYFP

Row | Compound | fraction of fluorescent probe displaced
1 | O=C(NC[C@H]1NC(=O)[C@H]2CCCN(C2)C(=O)CCSSCCNC(=O)[C@H](Cc2cccc3ccccc23)NC1=O)c1ccc(Cl)s1 [X-Nip-D-Dap-1-NaI + Acid 14] | -0.019
2 | O=C(NC[C@H]1NC(=O)[C@H]2CCCN(C2)C(=O)CCSSCCNC(=O)[C@H](Cc2cccc3ccccc23)NC1=O)c1ccc(Cl)cc1 [X-Nip-D-Dap-1-NaI + Acid 25] | 0.015
3 | O=C(NC[C@H]1NC(=O)[C@H]2CCCN(C2)C(=O)CCSSCCNC(=O)[C@H](Cc2cccc3ccccc23)NC1=O)c1ccc2ccccc2c1 [X-Nip-D-Dap-1-NaI + Acid 107] | 0.00455
4 | O=C(/C=C/c1ccc2ccccc2c1)NC[C@H]1NC(=O)[C@H]2CCCN(C2)C(=O)CCSSCCNC(=O)[C@H](Cc2cccc3ccccc23)NC1=O [X-Nip-D-Dap-1-NaI + Acid 112] | 0.021
5 | CC(Oc1cccc(Cl)c1)C(=O)NC[C@H]1NC(=O)[C@H]2CCCN(C2)C(=O)CCSSCCNC(=O)[C@H](Cc2cccc3ccccc23)NC1=O (stereo partly drawn) [X-Nip-D-Dap-1-NaI + Acid 113] | 0.00133
6 | O=C(CCS(=O)(=O)c1ccccc1)NC[C@H]1NC(=O)[C@H]2CCCN(C2)C(=O)CCSSCCNC(=O)[C@H](Cc2cccc3ccccc23)NC1=O [X-Nip-D-Dap-1-NaI + Acid 114] | -0.00533
7 | O=C(NC[C@H]1NC(=O)[C@H]2CCCN(C2)C(=O)CCSSCCNC(=O)[C@H](Cc2cccc3ccccc23)NC1=O)C1COc2ccccc2O1 (stereo partly drawn) [X-Nip-D-Dap-1-NaI + Acid 115] | 0.021
8 | O=C(/C=C/c1ccc(Cl)cc1)NC[C@H]1NC(=O)[C@H]2CCCN(C2)C(=O)CCSSCCNC(=O)[C@H](Cc2ccc3ccccc3c2)NC1=O [X-Nip-D-Dap-2-Nal + Acid 108] | 0.021
9 | O=C(/C=C/c1ccc(OCc2ccccc2)cc1)NC[C@H]1NC(=O)[C@H]2CCCN(C2)C(=O)CCSSCCNC(=O)[C@H](Cc2ccc3ccccc3c2)NC1=O [X-Nip-D-Dap-2-Nal + Acid 110] | 0.008
10 | O=C(NC[C@H]1NC(=O)[C@H]2CCCN(C2)C(=O)CCSSCCNC(=O)[C@H](Cc2ccc3ccccc3c2)NC1=O)c1cccc(Oc2ccccc2)c1 [X-Nip-D-Dap-2-Nal + Acid 111] | 0.00133
11 | O=C(/C=C/c1ccc2ccccc2c1)NC[C@H]1NC(=O)[C@H]2CCCN(C2)C(=O)CCSSCCNC(=O)[C@H](Cc2ccc3ccccc3c2)NC1=O [X-Nip-D-Dap-2-Nal + Acid 112] | 0.008
12 | O=C(CCS(=O)(=O)c1ccccc1)NC[C@H]1NC(=O)[C@H]2CCCN(C2)C(=O)CCSSCCNC(=O)[C@H](Cc2ccc3ccccc3c2)NC1=O [X-Nip-D-Dap-2-Nal + Acid 114] | 0.048
13 | O=C(NC[C@H]1NC(=O)[C@H]2CCCN(C2)C(=O)CCSSCCNC(=O)[C@H](Cc2c[nH]c3cc(Cl)ccc23)NC1=O)c1ccc(Cl)cc1 [X-Nip-D-Dap-Cl-Trp + Acid 25] | 0.041
14 | O=C(/C=C/c1ccncc1)NC[C@H]1NC(=O)[C@H]2CCCN(C2)C(=O)CCSSCCNC(=O)[C@H](Cc2c[nH]c3cc(Cl)ccc23)NC1=O [X-Nip-D-Dap-Cl-Trp + Acid 106] | 0.018
15 | O=C(NC[C@H]1NC(=O)[C@H]2CCCN(C2)C(=O)CCSSCCNC(=O)[C@H](Cc2c[nH]c3cc(Cl)ccc23)NC1=O)c1ccc2ccccc2c1 [X-Nip-D-Dap-Cl-Trp + Acid 107] | 0.024
16 | O=C(/C=C/c1ccc(Cl)cc1)NC[C@H]1NC(=O)[C@H]2CCCN(C2)C(=O)CCSSCCNC(=O)[C@H](Cc2c[nH]c3cc(Cl)ccc23)NC1=O [X-Nip-D-Dap-Cl-Trp + Acid 108] | 0.00133
17 | O=C(/C=C/c1ccc(OCc2ccccc2)cc1)NC[C@H]1NC(=O)[C@H]2CCCN(C2)C(=O)CCSSCCNC(=O)[C@H](Cc2c[nH]c3cc(Cl)ccc23)NC1=O [X-Nip-D-Dap-Cl-Trp + Acid 110] | 0.008
18 | O=C(/C=C/c1ccc2ccccc2c1)NC[C@H]1NC(=O)[C@H]2CCCN(C2)C(=O)CCSSCCNC(=O)[C@H](Cc2c[nH]c3cc(Cl)ccc23)NC1=O [X-Nip-D-Dap-Cl-Trp + Acid 112] | -0.00533
19 | CC(Oc1cccc(Cl)c1)C(=O)NC[C@H]1NC(=O)[C@H]2CCCN(C2)C(=O)CCSSCCNC(=O)[C@H](Cc2c[nH]c3cc(Cl)ccc23)NC1=O (stereo partly drawn) [X-Nip-D-Dap-Cl-Trp + Acid 113] | -0.00533
20 | O=C(CCS(=O)(=O)c1ccccc1)NC[C@H]1NC(=O)[C@H]2CCCN(C2)C(=O)CCSSCCNC(=O)[C@H](Cc2c[nH]c3cc(Cl)ccc23)NC1=O [X-Nip-D-Dap-Cl-Trp + Acid 114] | 0.015
21 | O=C(NC[C@H]1NC(=O)[C@H]2CCCN(C2)C(=O)CCSSCCNC(=O)[C@H](Cc2c[nH]c3cc(Cl)ccc23)NC1=O)C1COc2ccccc2O1 (stereo partly drawn) [X-Nip-D-Dap-Cl-Trp + Acid 115] | -0.012
22 | O=C(NC[C@H]1NC(=O)[C@H]2CCCN(C2)C(=O)CCSSCCNC(=O)[C@@H](Cc2c[nH]c3ccccc23)NC1=O)c1ccc(Cl)s1 [X-Nip-D-Dap-D-Trp + Acid 14] | -0.00533
23 | O=C(NC[C@H]1NC(=O)[C@H]2CCCN(C2)C(=O)CCSSCCNC(=O)[C@@H](Cc2c[nH]c3ccccc23)NC1=O)c1ccc(Cl)cc1 [X-Nip-D-Dap-D-Trp + Acid 25] | 0.00133
24 | O=C(NC[C@H]1NC(=O)[C@H]2CCCN(C2)C(=O)CCSSCCNC(=O)[C@@H](Cc2c[nH]c3ccccc23)NC1=O)c1ccc2ccccc2c1 [X-Nip-D-Dap-D-Trp + Acid 107] | 0.050
25 | O=C(/C=C/c1ccc(OCc2ccccc2)cc1)NC[C@H]1NC(=O)[C@H]2CCCN(C2)C(=O)CCSSCCNC(=O)[C@@H](Cc2c[nH]c3ccccc23)NC1=O [X-Nip-D-Dap-D-Trp + Acid 110] | -0.012
26 | O=C(/C=C/c1ccc2ccccc2c1)NC[C@H]1NC(=O)[C@H]2CCCN(C2)C(=O)CCSSCCNC(=O)[C@@H](Cc2c[nH]c3ccccc23)NC1=O [X-Nip-D-Dap-D-Trp + Acid 112] | 0.075
27 | O=C(CCS(=O)(=O)c1ccccc1)NC[C@H]1NC(=O)[C@H]2CCCN(C2)C(=O)CCSSCCNC(=O)[C@@H](Cc2c[nH]c3ccccc23)NC1=O [X-Nip-D-Dap-D-Trp + Acid 114] | 0.021

More lines, now with the values ahead:

Row | fraction of fluorescent probe displaced | Compound
28 | 0.008 | Cn1cc(C[C@@H]2NC(=O)[C@@H](CNC(=O)c3ccc(Cl)s3)NC(=O)[C@H]3CCCN(C3)C(=O)CCSSCCNC2=O)c2ccccc21 [X-Nip-D-Dap-Me-Trp + Acid 14]
29 | -0.00533 | Cn1cc(C[C@@H]2NC(=O)[C@@H](CNC(=O)c3ccc(Cl)cc3)NC(=O)[C@H]3CCCN(C3)C(=O)CCSSCCNC2=O)c2ccccc21 [X-Nip-D-Dap-Me-Trp + Acid 25]
30 | 0.015 | Cn1cc(C[C@@H]2NC(=O)[C@@H](CNC(=O)/C=C/c3ccc(Cl)cc3)NC(=O)[C@H]3CCCN(C3)C(=O)CCSSCCNC2=O)c2ccccc21 [X-Nip-D-Dap-Me-Trp + Acid 108]
31 | 0.008 | Cn1cc(C[C@@H]2NC(=O)[C@@H](CNC(=O)/C=C/c3ccc(OCc4ccccc4)cc3)NC(=O)[C@H]3CCCN(C3)C(=O)CCSSCCNC2=O)c2ccccc21 [X-Nip-D-Dap-Me-Trp + Acid 110]
32 | 0.048 | Cn1cc(C[C@@H]2NC(=O)[C@@H](CNC(=O)c3cccc(Oc4ccccc4)c3)NC(=O)[C@H]3CCCN(C3)C(=O)CCSSCCNC2=O)c2ccccc21 [X-Nip-D-Dap-Me-Trp + Acid 111]
33 | 0.021 | Cn1cc(C[C@@H]2NC(=O)[C@@H](CNC(=O)/C=C/c3ccc4ccccc4c3)NC(=O)[C@H]3CCCN(C3)C(=O)CCSSCCNC2=O)c2ccccc21 [X-Nip-D-Dap-Me-Trp + Acid 112]
34 | 0.015 | Cn1cc(C[C@@H]2NC(=O)[C@@H](CNC(=O)CCS(=O)(=O)c3ccccc3)NC(=O)[C@H]3CCCN(C3)C(=O)CCSSCCNC2=O)c2ccccc21 [X-Nip-D-Dap-Me-Trp + Acid 114]
35 | -0.012 | Cn1cc(C[C@@H]2NC(=O)[C@@H](CNC(=O)C3COc4ccccc4O3)NC(=O)[C@H]3CCCN(C3)C(=O)CCSSCCNC2=O)c2ccccc21 (stereo partly drawn) [X-Nip-D-Dap-Me-Trp + Acid 115]
36 | 0.00133 | CN1C(=O)[C@@H](CNC(=O)c2ccc(Cl)s2)NC(=O)[C@H]2CCCN(C2)C(=O)CCSSCCNC(=O)[C@@H]1Cc1c[nH]c2ccccc12 [X-Nip-D-Dap-NMe-Trp + Acid 14]
37 | 0.00133 | CN1C(=O)[C@@H](CNC(=O)c2ccc(Cl)cc2)NC(=O)[C@H]2CCCN(C2)C(=O)CCSSCCNC(=O)[C@@H]1Cc1c[nH]c2ccccc12 [X-Nip-D-Dap-NMe-Trp + Acid 25]
38 | -0.00844 | CN1C(=O)[C@@H](CNC(=O)/C=C/c2ccncc2)NC(=O)[C@H]2CCCN(C2)C(=O)CCSSCCNC(=O)[C@@H]1Cc1c[nH]c2ccccc12 [X-Nip-D-Dap-NMe-Trp + Acid 106]
39 | 0.031 | CN1C(=O)[C@@H](CNC(=O)c2ccc3ccccc3c2)NC(=O)[C@H]2CCCN(C2)C(=O)CCSSCCNC(=O)[C@@H]1Cc1c[nH]c2ccccc12 [X-Nip-D-Dap-NMe-Trp + Acid 107]
40 | -0.00533 | CN1C(=O)[C@@H](CNC(=O)/C=C/c2ccc(OCc3ccccc3)cc2)NC(=O)[C@H]2CCCN(C2)C(=O)CCSSCCNC(=O)[C@@H]1Cc1c[nH]c2ccccc12 [X-Nip-D-Dap-NMe-Trp + Acid 110]
41 | 0.008 | CN1C(=O)[C@@H](CNC(=O)CCS(=O)(=O)c2ccccc2)NC(=O)[C@H]2CCCN(C2)C(=O)CCSSCCNC(=O)[C@@H]1Cc1c[nH]c2ccccc12 [X-Nip-D-Dap-NMe-Trp + Acid 114]
42 | -0.00533 | O=C(NC[C@H]1NC(=O)[C@H]2CCCN(C2)C(=O)CCSSCCNC(=O)[C@H](Cc2c[nH]c3ccccc23)NC1=O)c1ccc(Cl)cc1 [X-Nip-D-Dap-Trp + Acid 25]
